Entries after “also recorded” stand apart in the source; their conditions may differ.
Columns and labels:
[1] = test system: ptch1 expression; assay: Whole mount zebrafish in situ hybridization for ptch1; type: in vivo; settings: 2 μM from 4 hpf
Protocol: In situ hybridization was performed as previously described. Zebrafish ptch1 probes were produced as previously described.

[2] = test system: Gli-Luc reporter activity; assay: Gli-luciferase reporter under Gli overexpression; type: cell-based
Protocol: (§1) For Hh signaling assays, Shh-Light2 cells stably transfected with Gli-Luciferase reporter construct were used along with Shh-conditioned media, as previously described^7. Alternatively, 3 μM purmorphamine or 20 nM Smoothened agonist (SAG) (Santa Cruz Biotechnology, Santa Cruz, Calif.) was used to induce Hh signaling. Reporter cells were seeded in 96-well plates and incubated overnight with the various concentrations of eggmanone and Shh-conditioned media. To assess the effects of overexpression of Gli-2, PDE4D3 and DN-PDE4D3 on Hh signaling, mammalian expression vectors containing these constructs were transfected into Shh-Light2 cells in 96-well plates using Fugene6 (Roche), according to manufacturer's instructions. The transfected or Shh-stimulated cells were incubated overnight with the various concentrations of compound. The cells were then lysed, and cell extracts were subjected to Steady-Glo luciferase assay (Promega) according to manufacturer's instructions. The results were normalized to cell titer, as determined using Cell Titer-Glo luminescence assay (Promega).

[3] = test system: Influenza; assay: Influenza antiviral effect; type: cell-based
[4] = test system: 11 PDE families; assay: In vitro PDE activity assays across 11 PDE families; type: biochemical
Protocol: In vitro PDE profiling and dose-response assays were performed by BPS Biosciences (San Diego, Calif.). Kinetic Mechanism of inhibition studies were conducted by Millipore (St. Louis, Mo.). In brief, the PDE assay measures fluorescent polarization of FAM-AMP as FAM-cAMP is converted to FAM-AMP by PDE), the binding agent.
A series of dilutions of the test compound were prepared with 10% DMSO in assay buffer and 5 μl of the dilution was added to a 50 μl reaction so that the final concentration of DMSO is 1% in all of reactions. All of the PDE enzymatic reactions were conducted in duplicate at room temperature for 60 minutes in a 50 μl mixture containing PDE assay buffer (10 mM Tris-HCl, pH7.4, 10 mM MaCl2, 0.05% Tween 20), 100 nM FAM-cAMP, a PDE enzyme and a test compound.
After the enzymatic reaction, 100 μl of a binding solution (1:100 dilution of the binding agent, which contains the nano beads that recognize FAM-AMP, with the binding agent diluent) was added to each reaction and the reaction was performed at room temperature for 60 minutes. Fluorescence intensity was measured at an excitation of 485 nm and an emission of 528 nm using a Tecan Infinite M1000 microplate reader. Assays done by Millipore were conducted similarly with changes noted below: […]

[5] = test system: cAMP; assay: FRET-based cAMP sensors in NIH3T3 cells; type: cell-based; settings: 2 μM
Description: To visualize changes in cAMP concentrations in individual cells and cellular regions, we utilized two distinct FRET (fluorescence resonance energy transfer)-based cAMP sensors: the Epac-FRET sensor (mTurquoiseΔ-Epac(CD, ΔDEP)-cp173 Venus-Venus)^35, which detects cytosolic cAMP concentration and the PKA-based cAMP sensor (PKAC-YFP and PKARII-CFP combination), which has been used to document changes in local cAMP levels in the centrosome and basal body.

[6] = test system: PKA activation; assay: Immunostaining of autophosphorylated PKA catalytic subunit in NIH3T3 cells; type: cell-based; settings: SAG-stimulated NIH3T3 cells, Egm 5 μM, Rolipram 10 μM
Protocol: NIH3T3 cells were plated on Poly-D-Lysine-coated glass coverslips and were cultured at 37° C., 5% CO2 in DMEM medium containing 10% fetal bovine serum until reaching 75% confluency. For one set of experiments, cells were then transfected with VSV-tagged PDE4D3 plasmid (gift from Miles Houslay, University of Glasgow, Scotland, UK) using Fugene6 transfection reagent (Roche, Indianapolis, Ind.) per manufacturer's protocol. Afterward, cell medium was replaced with DMEM/0.5% FBS containing either 5 μM eggmanone or DMSO and incubated overnight at 37° C., 5% CO2. Cells were fixed in 4% PFA at room temperature for 10 minutes prior to permeabilization, blocking, and staining with primary antibodies against Arl13b (gift of Tamary Caspary, Emory University, Atlanta, Ga.) and VSV (AbCam, Cambridge, Mass.). Fluorescent immunocytochemistry was performed using species-specific, secondary antibodies (Jackson Immunoresearch, West Grove, Pa.). For additional immunocytochemistry experiment, cells were treated with 20 nM SAG in the presence or absence of 5 uM Eggmanone. After overnight incubation, cells were washed with PBS, fixed for 10 minutes in 4% PFA, permeabilized 20 minutes at −20C with cold methanol, blocked with PBS/1% BSA, and incubated with primary antibodies to phospho-PKA catalytic domain Thr197 (Cell Signaling, Danvers, Mass.) and then to Arl13b. An additional overnight blocking step using unconjugated rabbit IgG was required between primary antibody incubations since both antibodies were produced in rabbit. Fluorescent conjugated secondary antibodies were used for visualization. Data analysis was performed in part through the use of the VUMC Cell Imaging Shared Resource.
Using ImageJ software (National Institutes of Health, developed by W. Rasband), a region of interest was created using the magic wand tool on Arl13b channel and transposed to the Gli2 channel, and integrated density was measured and reported as arbitrary units (a.u.). For phospho-PKA, using ImageJ, a line selection tool was used to select a line projected through the length of the primary cilia and an equal length beyond. The intensity values were potted and the cumulative florescence (area under the curve) was calculated for three cilia, blindly, for each treatment. These values for cilia and pericilia domain were analyzed by a two tailed students t-test. For correlation analysis, correlation coefficient for intensity of gamma-tubulin and phosphor-PKA were calculated and compared among treatments with students t-test.

[7] = test system: PDE4D3-induced Hh reporter activity; assay: Hh reporter activity in Shh-Light2 cells transfected with PDE4D3; type: cell-based; settings: 5 μM
Protocol: as §1

[8] = test system: Gli2 trafficking; assay: Gli2 ciliary localization and nuclear fraction western blot in NIH3T3 cells; type: cell-based; settings: SAG 20 nM; for Gli2 localization in the primary cilium: 5 μM; for SAG-induced nuclear accumulation of full-length Gli2: Egm 10 μM, FSK 30 μM
[9] = test system: Dengue; assay: Dengue viral CPE assay; type: cell-based
Description: The small molecule PDE4 inhibitors of the presently disclosed subject matter are actively anti-viral in viral CPE (cytopathic effect) assays versus RSV (respiratory syncytial virus), Dengue (1 experiment), and BVDV (bovine viral diarrhea virus, surrogate for human hepatitis C virus). Of note, PDE4 inhibitors are now approved for COPD, for which RSV may be an exacerbating factor).

[10] = test system: hiPSC-CMs; assay: Contractile function of hiPSC-derived cardiomyocytes; type: cell-based, human
[11] = test system: mouse aorta; assay: Myography of cannulated mouse aorta; settings: listed as Egm
Description: For myography, to test the vascular tone for presense of downstream or off target effects, mouse aorta was mounted and cannulated on a closed system. A physiological buffer (with respect to pH, CO2, and temperature) was circulated through the vessel.

C=C(C)Cn1c(SCC(=O)c2cccs2)nc2sc3c(c2c1=O)CCCC3 [Eggmanone, 3-(2-methylallyl)-2-((2-oxo-2-(thiophen-2-yl)ethyl)thio)-5,6,7,8-tetrahydrobenzo[4,5]thieno[2,3-d]pyrimidine-4(3H)-one]
Hh-responsive ptch1 expression in embryos [1]: abrogated the expression of the Hh target gene patched-1 (ptch1)
Gli-luciferase reporter activity under Gli2 overexpression [2]: did not block Gli-Luc reporter activity in cells transiently overexpressing Gli2
Antiviral effect on Influenza [3]: has antiviral effects
Inhibition across PDE families ([4]; 10 μM (10 and 50 μM in b110)): significantly inhibited only the PDE4 family
Inhibition across PDE families ([4]; 10 μM (10 and 50 μM in b110), listed as eggmanone): significantly inhibited only the cAMP specific PDE4 family
Cytosolic FRET signal (Epac-FRET sensor) [5]: had no effect on the cytosolic FRET signal
cAMP levels by PKA-based cAMP sensor [5]: increased cAMP levels only at discrete regions
PKA activation (phospho-PKA-C staining), spatial distribution [6]: significantly increased the intensity of PKA activation almost exclusively at the basal body
PKA activation (phospho-PKA-C staining), spatial distribution ([6]; listed as eggmanone): significantly increased the intensity of PKA activation almost exclusively in the basal body
Hh reporter activity induced by wild-type PDE4D3 overexpression [7]: abrogated; also recorded: abolished
Hh reporter activity induced by wild-type PDE4D3 overexpression ([7]; listed as eggmanone): abrogated
Gli2 localization in the primary cilium [8]: significantly more Gli2 accumulated in Eggmanone-treated cilia than in controls
Gli2 localization in the primary cilium ([8]; listed as eggmanone): more Gli2 accumulated in eggmanone-treated cilium than in controls
SAG-induced nuclear accumulation of full-length Gli2 [8]: blunted the nuclear accumulation of the full-length Gli2
SAG-induced nuclear accumulation of full-length Gli2 ([8]; listed as eggmanone): blunted the nuclear accumulation of the full-length Gli2
Antiviral effect on Dengue [9]: has antiviral effects

C=C(C)Cn1c(SCC(=O)c2cccs2)nc2sc3c(c2c1=O)CCCC3 [EGM, Eggmanone]
Hh-responsive ptch1 expression in embryos [1]: abolished Hh-responsive ptch1 expression in adaxial cells; also recorded: abolished Hh-responsive ptc1 expression in adaxial cells; also recorded: abolished Hh-responsive ptch1 expression in somites
Contractile function [10]: increased contractile function
Gli-luciferase reporter activity under Gli2 overexpression [2]: had no significant effect on Gli-luciferase reporter activity under Gli2 overexpression conditions
Inhibition across PDE families ([4]; 10 μM (10 and 50 μM)): significantly inhibited only the PDE4 class
PKA activation (phospho-PKA-C staining), spatial distribution [6]: increases local PKA activation at the base of the primary cilia; also recorded: spatially restricted activation of PKA around the centrosome
PKA activation (phospho-PKA-C staining), spatial distribution ([6]; listed as Egm): increases local PKA activation at the base of the primary cilia; also recorded: increases local PKA activation at the basal body
Vessel diameter after pre-constriction [11]: little to no contraction or dilation of the vessel; also recorded: had no effect on the vessel
Hh reporter activity induced by wild-type PDE4D3 overexpression [7]: abolished
Gli2 localization in the primary cilium [8]: significantly increased Gli2 localization in the cilium
Gli2 localization in the primary cilium ([8]; listed as Egm): significantly increased Gli2 localization in the cilia
SAG-induced nuclear accumulation of full-length Gli2 [8]: abrogated
SAG-induced nuclear accumulation of full-length Gli2 ([8]; listed as Egm): abrogated
